Assay results taken from ChEMBL document CHEMBL1131797, “4-hydroxy-5,6-dihydro-2H-pyran-2-ones.3. Bicyclic and hetero-aromatic ring systems as 3-position scaffolds to bind to S1' and S2' of the HIV-1 protease enzyme” (Bioorg Med Chem Lett, 1999).
pEC50, pIC50, pKi: −log10 of the molar value.

Columns and labels:
[1] = target: T1, Human immunodeficiency virus type 1 protease (Human immunodeficiency virus 1, UniProt Q72874); experiment: Inhibitory concentration against human immunodeficiency virus type 1(HIV-1) protease at pH 4.7
CCRF-CEM = experiment: Antiviral activity was evaluated against HIV-infected CEM cells; format: functional, cell-based; details: Homo sapiens
[2] = target: T1, Human immunodeficiency virus type 1 protease; experiment: Inhibitory activity was evaluated against human immunodeficiency virus type 1(HIV-1) protease at pH 6.2
[3] = target: T1, Human immunodeficiency virus type 1 protease; experiment: Inhibitory activity was evaluated against human immunodeficiency virus type 1(HIV-1) protease at pH 4.7

| pIC50 [1] | pEC50 (CCRF-CEM) | pIC50 [2] | pKi [3] | Structure (SMILES) |
| --- | --- | --- | --- | --- |
| 6.30 | 4.21 |  |  | CC(C)(C)n1c(SC2=C(O)OC(CCc3ccccc3)(c3ccccc3)CC2=O)nc2ccccc21 (configuration not stated) |
| 7.96 | 4.51 | 6.68 |  | CC(C)(C)c1c(SC2=C(O)OC(CCc3ccccc3)(c3ccccc3)CC2=O)oc2ccccc12 (configuration not stated) |
|  | 4.34 |  |  | Cc1ccc(C(C)(C)C)c(SC2=C(O)OC(CCc3ccccc3)(c3ccccc3)CC2=O)c1 (configuration not stated) |
| 7.55 | 4.48 |  |  | CC(C)(C)c1cc2c(cc1SC1=C(O)OC(CCc3ccccc3)(c3ccccc3)CC1=O)CCCC2 (configuration not stated) |
| 8.15 | < 4.18 | 7.77 |  | CC(C)(C)c1c(SC2=C(O)OC(CCc3ccccc3)(c3ccccc3)CC2=O)sc2ccccc12 (configuration not stated) |
| 6.44 | < 4.00 |  |  | O=C1CC(CCc2ccccc2)(c2ccccc2)OC(O)=C1Sc1cc2ccccc2s1 (configuration not stated) |
| 6.71 | < 4.00 |  |  | Cc1ccsc1SC1=C(O)OC(CCc2ccccc2)(c2ccccc2)CC1=O (configuration not stated) |

Continued, compound first:

| Structure (SMILES) | pIC50 [1] | pEC50 (CCRF-CEM) | pIC50 [2] | pKi [3] |
| --- | --- | --- | --- | --- |
| CC(C)(C)c1cc2c(cc1SC1=C(O)OC(CCc3ccccc3)(c3ccccc3)CC1=O)CCC2 (configuration not stated) | 8.05 | 4.66 | 6.89 |  |
| CC(C)(C)c1oc2ccccc2c1SC1=C(O)OC(CCc2ccccc2)(c2ccccc2)CC1=O (configuration not stated) | 7.74 | 5.00 | 6.68 |  |
| Cc1cc(SC2=C(O)O[C@](CCc3ccc(O)cc3)(C(C)C)CC2=O)c(C(C)(C)C)cc1CO |  | 6.30 | 9.00 |  |
| O=C1CC(CCc2ccccc2)(c2ccccc2)OC(O)=C1Sc1cccs1 (configuration not stated) | 6.54 | < 4.14 |  |  |
| CCc1c(SC2=C(O)OC(CCc3ccccc3)(c3ccccc3)CC2=O)sc2ccccc12 (configuration not stated) | 7.55 | < 4.19 |  |  |
| CC(C)[C@]1(CCc2ccc(O)cc2)CC(=O)C(Sc2sc3ccccc3c2C(C)(C)C)=C(O)O1 |  | 6.00 | > 9.00 | > 10.00 |
| Cc1c(SC2=C(O)OC(CCc3ccccc3)(c3ccccc3)CC2=O)sc2ccccc12 (configuration not stated) | 7.13 | < 4.00 |  |  |
